From patent publication US20260144788A1, “COMPOUND FOR SHP2 PROTEIN DEGRADATION AND MEDICAL USES THEREOF” (UBIX THERAPEUTICS, INC., priority 2022, published 2026)

Target: T1, SHP2 protein (Homo sapiens, UniProt Q06124)
T1 sequence (Q06124 1-593): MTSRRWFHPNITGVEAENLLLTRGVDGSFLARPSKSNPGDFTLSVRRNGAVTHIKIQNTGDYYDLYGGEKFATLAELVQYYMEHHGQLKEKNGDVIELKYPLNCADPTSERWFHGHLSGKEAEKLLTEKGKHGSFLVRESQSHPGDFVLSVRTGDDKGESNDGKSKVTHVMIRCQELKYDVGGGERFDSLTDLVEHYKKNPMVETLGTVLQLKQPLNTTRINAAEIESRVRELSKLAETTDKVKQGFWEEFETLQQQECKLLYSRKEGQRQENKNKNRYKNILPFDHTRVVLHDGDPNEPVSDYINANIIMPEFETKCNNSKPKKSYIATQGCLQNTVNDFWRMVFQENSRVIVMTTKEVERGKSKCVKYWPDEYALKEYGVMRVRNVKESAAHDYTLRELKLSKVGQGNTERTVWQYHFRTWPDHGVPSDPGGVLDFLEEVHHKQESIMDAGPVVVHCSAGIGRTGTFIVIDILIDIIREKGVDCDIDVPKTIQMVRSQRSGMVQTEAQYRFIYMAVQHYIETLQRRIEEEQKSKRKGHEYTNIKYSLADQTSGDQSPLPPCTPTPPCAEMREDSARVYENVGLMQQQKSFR
Assay: Measurement of SHP2 protein degradation in MV-4-11 cells (western blotting)
Type: cell-based
Set-up: endogenous in cells
Details: harvested after 24 hours
Summary of the method: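 MV-4-11 cells in IMDM/5% FBS were exposed to compound at final 0.01, 0.1, 1 μM or 0.001, 0.01, 0.1 μM for 24 h, DMSO as negative control. BCA-normalised lysates were immunoblotted for SHP2 with GAPDH as loading control, read on LI-COR Odyssey.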

| SHP2% degradation (0.01 μM) [%] | SHP2% degradation (0.1 μM) [%] | Compound |
| --- | --- | --- |
| 32.9 | 92.6 | Cc1ncsc1-c1ccc(CNC(=O)[C@@H]2C[C@@H](O)CN2C(=O)[C@@H](NC(=O)C2(F)CC2)C(C)(C)C)c(OCCN2CCC(C(=O)N3CCC(Nc4cccc(Sc5cnc(N6CCC(C)(CN)CC6)cn5)c4Cl)CC3)CC2)c1 [Example 51, (2S,4R)—N-(2-(2-(4-(4-((3-((5-(4-(aminomethyl)-4-methylpiperidin-1-yl)pyrazin-2-yl)thio)-2-chlorophenyl)amino)piperidine-1-carbonyl)piperidin-1-yl)ethoxy)-4-(4-methylthiazol-5-yl)benzyl)-1-((S)-2-(1-fluorocyclopropane-1-carboxamido)-3,3-dimethylbutanoyl)-4-hydroxypyrrolidine-2-carboxamide] |
| 20.5 | 91.9 | Cc1ncsc1-c1ccc(CNC(=O)[C@@H]2C[C@@H](O)CN2C(=O)[C@@H](NC(=O)C2(F)CC2)C(C)(C)C)c(OCCN2CCC(C(=O)N3CCN(c4nccc(Sc5cnc(N6CCC(C)(CN)CC6)cn5)c4Cl)CC3)CC2)c1 [Example 52, (2S,4R)—N-(2-(2-(4-(4-(4-((5-(4-(aminomethyl)-4-methylpiperidin-1-yl)pyrazin-2-yl)thio)-3-chloropyridin-2-yl)piperazine-1-carbonyl)piperidin-1-yl)ethoxy)-4-(4-methylthiazol-5-yl)benzyl)-1-((S)-2-(1-fluorocyclopropane-1-carboxamido)-3,3-dimethylbutanoyl)-4-hydroxypyrrolidine-2-carboxamide] |
| 70.4 | 99.4 | Cc1ncsc1-c1ccc(CNC(=O)[C@@H]2C[C@@H](O)CN2C(=O)[C@@H](NC(=O)C2(F)CC2)C(C)(C)C)c(OCCN2CCN(C(=O)C3CN(c4nccc(Sc5cnc(N6CCC(C)(CN)CC6)cn5)c4Cl)C3)CC2)c1 [Example 53, (2S,4R)—N-(2-(2-(4-(1-(4-((5-(4-(aminomethyl)-4-methylpiperidin-1-yl)pyrazin-2-yl)thio)-3-chloropyridin-2-yl)azetidine-3-carbonyl)piperazin-1-yl)ethoxy)-4-(4-methylthiazol-5-yl)benzyl)-1-((S)-2-(1-fluorocyclopropane-1-carboxamido)-3,3-dimethylbutanoyl)-4-hydroxypyrrolidine-2-carboxamide] |
| 69.4 | 99.3 | Cc1ncsc1-c1ccc(CNC(=O)[C@@H]2C[C@@H](O)CN2C(=O)[C@@H](NC(=O)C2(F)CC2)C(C)(C)C)c(OCCN2CCN(C(=O)C3CCN(c4nccc(Sc5cnc(N6CCC(C)(CN)CC6)cn5)c4Cl)CC3)CC2)c1 [Example 54, (2S,4R)—N-(2-(2-(4-(1-(4-((5-(4-(aminomethyl)-4-methylpiperidin-1-yl)pyrazin-2-yl)thio)-3-chloropyridin-2-yl)piperidine-4-carbonyl)piperazin-1-yl)ethoxy)-4-(4-methylthiazol-5-yl)benzyl)-1-((S)-2-(1-fluorocyclopropane-1-carboxamido)-3,3-dimethylbutanoyl)-4-hydroxypyrrolidine-2-carboxamide] |
| 27.5 | 95.0 | Cc1ncsc1-c1ccc(CNC(=O)[C@@H]2C[C@@H](O)CN2C(=O)[C@@H](NC(=O)C2(F)CC2)C(C)(C)C)c(OCCC2CCN(C(=O)C3CN(c4nccc(Sc5cnc(N6CCC(C)(CN)CC6)cn5)c4Cl)C3)CC2)c1 [Example 55, (2S,4R)—N-(2-(2-(1-(1-(4-((5-(4-(aminomethyl)-4-methylpiperidin-1-yl)pyrazin-2-yl)thio)-3-chloropyridin-2-yl)azetidine-3-carbonyl)piperidin-4-yl)ethoxy)-4-(4-methylthiazol-5-yl)benzyl)-1-((S)-2-(1-fluorocyclopropane-1-carboxamido)-3,3-dimethylbutanoyl)-4-hydroxypyrrolidine-2-carboxamide] |
| 55.8 | 98.6 | Cc1ncsc1-c1ccc(CNC(=O)[C@@H]2C[C@@H](O)CN2C(=O)[C@@H](NC(=O)C2(F)CC2)C(C)(C)C)c(OCCC2CCN(C(=O)C3CCN(c4nccc(Sc5cnc(N6CCC(C)(CN)CC6)cn5)c4Cl)CC3)CC2)c1 [Example 56, (2S,4R)—N-(2-(2-(1-(1-(4-((5-(4-(aminomethyl)-4-methylpiperidin-1-yl)pyrazin-2-yl)thio)-3-chloropyridin-2-yl)piperidine-4-carbonyl)piperidin-4-yl)ethoxy)-4-(4-methylthiazol-5-yl)benzyl)-1-((S)-2-(1-fluorocyclopropane-1-carboxamido)-3,3-dimethylbutanoyl)-4-hydroxypyrrolidine-2-carboxamide] |
| 65.7 | 96.8 | Cc1ncsc1-c1ccc(CNC(=O)[C@@H]2C[C@@H](O)CN2C(=O)[C@@H](NC(=O)C2(F)CC2)C(C)(C)C)c(OC2CC3(CCN(C(=O)C4CCN(c5nccc(Sc6cnc(N7CCC(C)(CN)CC7)cn6)c5Cl)CC4)CC3)C2)c1 [Example 57, (2S,4R)—N-(2-((7-(1-(4-((5-(4-(aminomethyl)-4-methylpiperidin-1-yl)pyrazin-2-yl)thio)-3-chloropyridin-2-yl)piperidine-4-carbonyl)-7-azaspiro[3.5]nonan-2-yl)oxy)-4-(4-methylthiazol-5-yl)benzyl)-1-((S)-2-(1-fluorocyclopropane-1-carboxamido)-3,3-dimethylbutanoyl)-4-hydroxypyrrolidine-2-carboxamide] |
| 82.0 | 97.7 | Cc1ncsc1-c1ccc(CNC(=O)[C@@H]2C[C@@H](O)CN2C(=O)[C@@H](NC(=O)C2(F)CC2)C(C)(C)C)c(OCC2CCN(C(=O)C3CCN(c4nccc(Sc5cnc(N6CCC(C)(CN)CC6)cn5)c4Cl)CC3)CC2)c1 [Example 58, (2S,4R)—N-(2-((1-(1-(4-((5-(4-(aminomethyl)-4-methylpiperidin-1-yl)pyrazin-2-yl)thio)-3-chloropyridin-2-yl)piperidine-4-carbonyl)piperidin-4-yl)methoxy)-4-(4-methylthiazol-5-yl)benzyl)-1-((S)-2-(1-fluorocyclopropane-1-carboxamido)-3,3-dimethylbutanoyl)-4-hydroxypyrrolidine-2-carboxamide] |
| 81.7 | 99.5 | Cc1ncsc1-c1ccc(CNC(=O)[C@@H]2C[C@@H](O)CN2C(=O)[C@@H](NC(=O)C2(F)CC2)C(C)(C)C)c(OC2CCN(C(=O)[C@H]3C[C@@H](Nc4nccc(Sc5cnc(N6CCC(C)(CN)CC6)cn5)c4Cl)C3)CC2)c1 [Example 59, (2S,4R)—N-(2-((1-((1s,3R)-3-((4-((5-(4-(aminomethyl)-4-methylpiperidin-1-yl)pyrazin-2-yl)thio)-3-chloropyridin-2-yl)amino)cyclobutanecarbonyl)piperidin-4-yl)oxy)-4-(4-methylthiazol-5-yl)benzyl)-1-((S)-2-(1-fluorocyclopropane-1-carboxamido)-3,3-dimethylbutanoyl)-4-hydroxypyrrolidine-2-carboxamide] |
| 81.5 | 99.3 | Cc1ncsc1-c1ccc(CNC(=O)[C@@H]2C[C@@H](O)CN2C(=O)[C@@H](NC(=O)C2(F)CC2)C(C)(C)C)c(OC2CCN(C(=O)[C@H]3C[C@@H](Nc4nccc(Sc5cnc(N6CCC(C)(N)CC6)cn5)c4Cl)C3)CC2)c1 [Example 60, (2S,4R)—N-(2-((1-((1S,3R)-3-((4-((5-(4-amino-4-methylpiperidin-1-yl)pyrazin-2-yl)thio)-3-chloropyridin-2-yl)amino)cyclobutanecarbonyl)piperidin-4-yl)oxy)-4-(4-methylthiazol-5-yl)benzyl)-1-((S)-2-(1-fluorocyclopropane-1-carboxamido)-3,3-dimethylbutanoyl)-4-hydroxypyrrolidine-2-carboxamide] |
| 80.3 | 99.3 | Cc1ncsc1-c1ccc(CNC(=O)[C@@H]2C[C@@H](O)CN2C(=O)[C@@H](NC(=O)C2(F)CC2)C(C)(C)C)c(OC2CCN(C(=O)[C@H]3C[C@H](Nc4nccc(Sc5cnc(N6CCC(C)(CN)CC6)cn5)c4Cl)C3)CC2)c1 [Example 61, (2S,4R)—N-(2-((1-((1r,3S)-3-((4-((5-(4-(aminomethyl)-4-methylpiperidin-1-yl)pyrazin-2-yl)thio)-3-chloropyridin-2-yl)amino)cyclobutanecarbonyl)piperidin-4-yl)oxy)-4-(4-methylthiazol-5-yl)benzyl)-1-((S)-2-(1-fluorocyclopropane-1-carboxamido)-3,3-dimethylbutanoyl)-4-hydroxypyrrolidine-2-carboxamide] |
| 75.6 | 98.9 | Cc1ncsc1-c1ccc(CNC(=O)[C@@H]2C[C@@H](O)CN2C(=O)[C@@H](NC(=O)C2(F)CC2)C(C)(C)C)c(OC2CCN(C(=O)[C@H]3CC[C@H](Nc4nccc(Sc5cnc(N6CCC(C)(CN)CC6)cn5)c4Cl)CC3)CC2)c1 [Example 62, (2S,4R)—N-(2-((1-((1R,4S)-4-((4-((5-(4-(aminomethyl)-4-methylpiperidin-1-yl)pyrazin-2-yl)thio)-3-chloropyridin-2-yl)amino)cyclohexanecarbonyl)piperidin-4-yl)oxy)-4-(4-methylthiazol-5-yl)benzyl)-1-((S)-2-(1-fluorocyclopropane-1-carboxamido)-3,3-dimethylbutanoyl)-4-hydroxypyrrolidine-2-carboxamide] |
